According to paper PMC11995724, “Antibiotic target discovery by integrated phenotypic and activity-based profiling of electrophilic fragments” (Cell chemical biology, 2025):

Test: in vitro
Conditions: human, hek293t cells

| Compound | viability at 48 h, 25 µM [%] |
| --- | --- |
| CN1C(=CC=C(C#N)C(=O)NCC2CCCO2)C(C)(C)c2ccccc21 (stereo not shown) [8-M04, 2-cyano-N-[(oxolan-2-yl)methyl]-4-(1,3,3-trimethyl-2,3-dihydro-1H-indol-2-ylidene)but-2-enamide] | 77.7 |
| COc1ccc(C=C(C#N)C(=O)Nc2cccnc2)cc1OC [8-M05, 2-cyano-3-(3,4-dimethoxyphenyl)-N-(pyridin-3-yl)prop-2-enamide] | 118 |
| CCOc1cc(C=C(C#N)C(=O)N2CCCC2)cc(Cl)c1O [8-M06, 3-(3-chloro-5-ethoxy-4-hydroxyphenyl)-2-(pyrrolidine-1-carbonyl)prop-2-enenitrile] | 92.1 |
| Cc1ccc(C)c(NC(=O)C(C#N)=Cc2cccn2C)c1 [8-M07, 2-cyano-N-(2,5-dimethylphenyl)-3-(1-methyl-1H-pyrrol-2-yl)prop-2-enamide] | 87.8 |
| Cc1n[nH]c(C)c1C=C(C#N)C(=O)Nc1cc(Cl)cc(Cl)c1 [8-M08, 2-cyano-N-(3,5-dichlorophenyl)-3-(3,5-dimethyl-1H-pyrazol-4-yl)prop-2-enamide] | 58.6 |
| CCN1C(=O)CSC1=C(C#N)C(N)=O [8-M09, 2-cyano-2-(3-ethyl-4-oxo-1,3-thiazolidin-2-ylidene)acetamide] | 90.5 |
| N#CC(=Cc1cnn(-c2ccc(Cl)cc2)c1)C(=O)NC1CCCC1 [8-M10, 3-[1-(4-chlorophenyl)-1H-pyrazol-4-yl]-2-cyano-N-cyclopentylprop-2-enamide] | 83.3 |
| CC(=O)Nc1ccc(C=C(C#N)C(=O)Nc2ccccc2Cl)cc1 [8-M11, N-(2-chlorophenyl)-2-cyano-3-(4-acetamidophenyl)prop-2-enamide] | 86.4 |
| N#CC(=Cc1csnn1)C(=O)Nc1ccc(Oc2ccccc2)cc1 [8-M12, 2-cyano-N-(4-phenoxyphenyl)-3-(1,2,3-thiadiazol-4-yl)prop-2-enamide] | 43 |
| CC(=O)Nc1ccc(C=C(C#N)C(=O)Nc2c(C)cc(C)cc2C)cc1 [8-M13, 2-cyano-3-(4-acetamidophenyl)-N-(2,4,6-trimethylphenyl)prop-2-enamide] | 87.7 |
| Cc1ccc(C=C(C#N)C(=O)Nc2cccc3ccccc23)cc1 [8-M14, 2-cyano-3-(4-methylphenyl)-N-(naphthalen-1-yl)prop-2-enamide] | 121 |
| CC(NC(=O)C(C#N)=Cc1ccc2c(c1)OCCO2)c1ccccc1 (stereo not shown) [8-M15, 2-cyano-3-(2,3-dihydro-1,4-benzodioxin-6-yl)-N-(1-phenylethyl)prop-2-enamide] | 64.3 |
| CC(=O)N(c1ccc(C)c(C)c1)c1nc(C=C(C#N)C(N)=O)cs1 [8-M16, 2-cyano-3-{2-[N-(3,4-dimethylphenyl)acetamido]-1,3-thiazol-4-yl}prop-2-enamide] | 85.9 |
| CC(C)Oc1ccccc1C=C(C#N)C(=O)Nc1ccccc1 [8-M17, 2-cyano-N-phenyl-3-[2-(propan-2-yloxy)phenyl]prop-2-enamide] | 78.4 |
| COc1ccc(NC(=O)C(C#N)=CC=Cc2ccccc2)cc1Cl [8-M18, N-(3-chloro-4-methoxyphenyl)-2-cyano-5-phenylpenta-2,4-dienamide] | 75.7 |
| COc1cc(C=C(C#N)C(=O)Nc2nccs2)cc(OC)c1O [8-M19, 2-cyano-3-(4-hydroxy-3,5-dimethoxyphenyl)-N-(1,3-thiazol-2-yl)prop-2-enamide] | 86.3 |
| CCc1ccc(NC(=O)C(C#N)=Cc2ccc(F)c(C#N)c2)cc1 [8-M20, 2-cyano-3-(3-cyano-4-fluorophenyl)-N-(4-ethylphenyl)prop-2-enamide] | 23.7 |
| Cc1cccc(C=C(C#N)C(=O)Nc2ccc(C(=O)O)cc2)c1 [8-M21, 4-[2-cyano-3-(3-methylphenyl)prop-2-enamido]benzoic acid] | 91.6 |
| N#CC(=Cc1ccc(Cl)cc1Cl)C(=O)Nc1ccncc1 [8-M22, 2-cyano-3-(2,4-dichlorophenyl)-N-(pyridin-4-yl)prop-2-enamide] | 67 |
| N#CC(=Cc1cccc(O)c1)C(=O)NCCc1ccccc1 [8-N03, 2-cyano-3-(3-hydroxyphenyl)-N-(2-phenylethyl)prop-2-enamide] | 101 |
| COc1ccc(NC(=O)C(C#N)=Cc2cccc(Cl)c2Cl)cc1 [8-N04, 2-cyano-3-(2,3-dichlorophenyl)-N-(4-methoxyphenyl)prop-2-enamide] | 74.8 |
| Cc1ccccc1NC(=O)C(C#N)=Cc1ccccc1Cl [8-N05, 3-(2-chlorophenyl)-2-cyano-N-(2-methylphenyl)prop-2-enamide] | 47.9 |
| COc1cc(C=C(C#N)C(=O)Nc2ccc3c(c2)OCCO3)ccc1O [8-N06, 2-cyano-N-(2,3-dihydro-1,4-benzodioxin-6-yl)-3-(4-hydroxy-3-methoxyphenyl)prop-2-enamide] | 91.5 |
| CCOc1ccc(NC(=O)C(C#N)=Cc2ccc(F)cc2)cc1 [8-N07, 2-cyano-N-(4-ethoxyphenyl)-3-(4-fluorophenyl)prop-2-enamide] | 102 |
| N#CC(=CC1=Cc2ccccc2OC1)C(=O)Nc1ccc(C(=O)O)cc1 [8-N08, 4-[3-(2H-chromen-3-yl)-2-cyanoprop-2-enamido]benzoic acid] | 97.6 |

| Compound | viability at 48 h, 25 µM [%] |
| --- | --- |
| CNc1ccc(C=C(C#N)C(=O)Nc2ccccc2F)cc1[N+](=O)[O-] [8-N09, 2-cyano-N-(2-fluorophenyl)-3-[4-(methylamino)-3-nitrophenyl]prop-2-enamide] | 110 |
| CC(NC(=O)C(C#N)=Cc1cnn(C)c1)c1ccccc1 (stereo not shown) [8-N10, 2-cyano-3-(1-methyl-1H-pyrazol-4-yl)-N-(1-phenylethyl)prop-2-enamide] | 97 |
| CSc1ccc(C=C(C#N)C(=O)Nc2cccc(Cl)c2C)cc1 [8-N11, N-(3-chloro-2-methylphenyl)-2-cyano-3-[4-(methylsulfanyl)phenyl]prop-2-enamide] | 103 |
| N#CC(=Cc1c2ccccc2c(Cl)c2ccccc12)C(N)=O [8-N12, 3-(10-chloroanthracen-9-yl)-2-cyanoprop-2-enamide] | 69.3 |
| CCCCNC(=O)C(C#N)=Cc1cccc2ccccc12 [8-N13, N-butyl-2-cyano-3-(naphthalen-1-yl)prop-2-enamide] | 112 |
| COc1ccc(O)c(C=C(C#N)C(=O)Nc2cccc3ccccc23)c1 [8-N14, 2-cyano-3-(2-hydroxy-5-methoxyphenyl)-N-(naphthalen-1-yl)prop-2-enamide] | 117 |
| N#CC(=Cc1cccc2ccccc12)C(=O)NCc1ccco1 [8-N15, 2-cyano-N-[(furan-2-yl)methyl]-3-(naphthalen-1-yl)prop-2-enamide] | 91 |
| CC(=O)Nc1ccc(C=C(C#N)C(=O)NC2CCCCC2)cc1 [8-N16, 2-cyano-N-cyclohexyl-3-(4-acetamidophenyl)prop-2-enamide] | 95.6 |
| N#CC(=Cc1ccncc1)C(=O)Nc1ccccc1Cl [8-N17, N-(2-chlorophenyl)-2-cyano-3-(pyridin-4-yl)prop-2-enamide] | 112 |
| N#CC(=Cc1cn(-c2ccccc2)nc1-c1ccccc1Cl)C(N)=O [8-N18, 3-[3-(2-chlorophenyl)-1-phenyl-1H-pyrazol-4-yl]-2-cyanoprop-2-enamide] | 91.5 |
| CCCn1c(C)cc(C=C(C#N)C(=O)Nc2cccc(C#N)c2)c1C [8-N19, 2-cyano-N-(3-cyanophenyl)-3-(2,5-dimethyl-1-propyl-1H-pyrrol-3-yl)prop-2-enamide] | 107 |
| CC(NC(=O)C(C#N)=Cc1ccccc1)C12CC3CC(CC(C3)C1)C2 (stereo not shown) [8-N20, N-[1-(adamantan-1-yl)ethyl]-2-cyano-3-phenylprop-2-enamide] | 13.9 |
| N#CC(=Cc1ccco1)C(=O)NC1CC1 [8-N21, 2-cyano-N-cyclopropyl-3-(furan-2-yl)prop-2-enamide] | 112 |
| COc1cc(C=C(C#N)C(=O)Nc2cccc(C)c2)c2c(c1)CC(C)O2 (stereo not shown) [8-N22, 2-cyano-3-(5-methoxy-2-methyl-2,3-dihydro-1-benzofuran-7-yl)-N-(3-methylphenyl)prop-2-enamide] | 83.2 |
| N#CC(=Cc1ccc(-c2ccc(Cl)cc2)o1)C(=O)Nc1ccccc1 [8-O03, 3-[5-(4-chlorophenyl)furan-2-yl]-2-cyano-N-phenylprop-2-enamide] | 58.3 |
| N#CC(=Cc1ccc(N2CCCCC2)cc1)C(=O)NC1CC1 [8-O04, 2-cyano-N-cyclopropyl-3-[4-(piperidin-1-yl)phenyl]prop-2-enamide] | 82.3 |
| N#CC(=Cc1ccc(O)c([N+](=O)[O-])c1)C(=O)NCc1ccccc1 [8-O05, N-benzyl-2-cyano-3-(4-hydroxy-3-nitrophenyl)prop-2-enamide] | 98.7 |
| CC(NC(=O)C(C#N)=Cc1cc(F)ccc1F)c1ccccc1 (stereo not shown) [8-O06, 2-cyano-3-(2,5-difluorophenyl)-N-(1-phenylethyl)prop-2-enamide] | 25.3 |
| C=CCNC(=O)C(C#N)=Cc1ccc(C#N)cc1 [8-O07, 2-cyano-3-(4-cyanophenyl)-N-(prop-2-en-1-yl)prop-2-enamide] | 85.6 |
| N#CC(=Cc1cc(F)ccc1F)C(=O)Nc1ccc(Cl)cc1Cl [8-O08, 2-cyano-N-(2,4-dichlorophenyl)-3-(2,5-difluorophenyl)prop-2-enamide] | 68.1 |
| CCNC(=O)C(C#N)=Cc1ccc(O)c(OCC)c1 [8-O09, 2-cyano-3-(3-ethoxy-4-hydroxyphenyl)-N-ethylprop-2-enamide] | 98.9 |
| CC(C)Oc1ccc(C=C(C#N)C(=O)NC2CCCC2)cc1 [8-O10, 2-cyano-N-cyclopentyl-3-[4-(propan-2-yloxy)phenyl]prop-2-enamide] | 57.5 |
| N#CC(=Cc1ccc([N+](=O)[O-])cc1)C(=O)Nc1ccc(Cl)cc1 [8-O11, N-(4-chlorophenyl)-2-cyano-3-(4-nitrophenyl)prop-2-enamide] | 82.6 |
| CC1CN(C(=O)C(C#N)=Cc2c(Cl)cccc2Cl)CC(C)O1 (stereo not shown) [8-O12, 3-(2,6-dichlorophenyl)-2-(2,6-dimethylmorpholine-4-carbonyl)prop-2-enenitrile] | 60.2 |
